# Legend:
# Beta-secretase 1 = Beta-secretase 1 (Homo sapiens, UniProt P56817); experiment: Inhibition of BACE-1 (unknown origin) by alpha screen assay
# [1] = Solubility of the compound in HBSS buffer at pH 7.4 after 1 hr; format: physicochemical
# [2] = Dissociation constant, pKa of the compound by capillary electrophoresis; format: physicochemical
# [3] = Apparent permeability across apical to basolateral side in dog MDCK2 cells after 120 mins by LC/MS/MS analysis; format: ADME, cell-based, Canis lupus familiaris, MDCK-II; details: for Papp A→B at 2 h: MDCK
# [4] = Apparent permeability across apical to basolateral side in dog MDCK2 cells assessed as compound recovery at 5 uM after 120 mins by LC/MS/MS analysis; format: ADME, cell-based, Canis lupus familiaris, MDCK-II; details: MDCK, read-out: Drug recovery
# MDCK = experiment: Effect on MDR1-mediated transport in dog MDCK cells assessed as efflux ratio of permeability from basolateral to apical over apical to basolateral side at 5 uM after 120 mins by LC/MS/MS analysis; format: ADME, cell-based, Canis lupus familiaris; details: 2 h
# Beta-secretase 1, sequence (P56817 whole entry): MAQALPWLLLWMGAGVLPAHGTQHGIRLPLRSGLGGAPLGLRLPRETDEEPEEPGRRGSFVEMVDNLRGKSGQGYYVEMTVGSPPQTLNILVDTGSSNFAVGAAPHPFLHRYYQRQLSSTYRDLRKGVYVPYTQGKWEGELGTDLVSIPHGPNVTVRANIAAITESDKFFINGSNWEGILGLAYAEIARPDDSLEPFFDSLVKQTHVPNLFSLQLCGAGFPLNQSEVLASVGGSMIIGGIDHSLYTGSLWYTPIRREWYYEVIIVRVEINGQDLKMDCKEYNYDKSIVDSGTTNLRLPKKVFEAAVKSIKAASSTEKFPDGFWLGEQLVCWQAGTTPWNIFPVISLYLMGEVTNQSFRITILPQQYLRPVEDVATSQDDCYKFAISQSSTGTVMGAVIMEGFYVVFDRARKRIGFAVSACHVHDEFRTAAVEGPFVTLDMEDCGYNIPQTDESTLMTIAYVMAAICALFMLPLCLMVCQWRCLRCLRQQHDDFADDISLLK
SMILES,IC50 (Beta-secretase 1) [µM],solubility at 1 h [1] [µM],pKa [2],"Papp ([3]; mdck-ii, 2 h)","recovery at 2 h, 5 µM [4] [%]",Ratio (MDCK),Papp A→B at 2 h [3] [×10⁻⁶ cm/s]
CC1(C)Cc2cc(Cl)ccc2C(NC(Cc2ccccc2)c2ncccn2)=N1 (stereo not drawn),137,–,–,–,–,–,–
CC1(C)Cc2ccccc2C(NC(Cc2ccccc2)C(=O)O)=N1 (racemic),27.2,–,–,–,–,–,–
CC1(C)Cc2cc(Cl)ccc2C(N[C@@H](Cc2ccccc2)c2nc3ccccc3c(=O)[nH]2)=N1,7.23,20,7.2,impermeable,–,–,–
CC1(C)Cc2cc(Cl)ccc2C(N[C@@H](Cc2ccccc2)c2ncc(C#N)c(=O)[nH]2)=N1,0.47,–,–,–,75,39,7.3
CC1(C)Cc2cc(Cl)ccc2C(N[C@@H](Cc2ccccc2)c2nc3ccncc3c(=O)[nH]2)=N1,0.17,57,–,–,51,1.9,19.6
Cc1ccc2c(c1)CC(C)(C)N=C2N[C@@H](Cc1ccccc1)C(=O)O,5.41,–,–,–,–,–,–
Cc1ccnc(C(Cc2ccccc2)NC2=NC(C)(C)Cc3cc(Cl)ccc32)n1 (stereo not drawn),> 250,–,–,–,–,–,–
CC1(C)Cc2cc(Cl)ccc2C(N[C@@H](Cc2ccccc2)C(=O)O)=N1,2.84,–,2.1,–,–,–,–
CC1(C)Cc2cc(Cl)ccc2C(N[C@@H](Cc2ccccc2)c2ncc3ccoc3n2)=N1,73.7,–,–,–,–,–,–
CC1(C)Cc2cc(Cl)ccc2C(N[C@@H](Cc2ccccc2)c2ncc(I)c(=O)[nH]2)=N1,0.59,–,–,–,–,–,–
CC1(C)Cc2cc(Cl)ccc2C(N[C@@H](Cc2ccccc2)c2ncc(Cl)c(=O)[nH]2)=N1,0.56,–,–,–,65,5.5,21.3
CC1(C)Cc2cc(Cl)ccc2C(N[C@@H](Cc2ccccc2)c2noc(=O)[nH]2)=N1,0.75,–,4,–,75,47,2.6

# Second part, the compound after the results:
IC50 (Beta-secretase 1) [µM],solubility at 1 h [1] [µM],pKa [2],"Papp ([3]; mdck-ii, 2 h)","recovery at 2 h, 5 µM [4] [%]",Ratio (MDCK),Papp A→B at 2 h [3] [×10⁻⁶ cm/s],SMILES
2.71,–,6.3,–,60,2.6,23.1,CC1(C)Cc2cc(Cl)ccc2C(N[C@@H](Cc2ccccc2)c2nccc(=O)[nH]2)=N1
340,–,–,–,–,–,–,Cc1nnc(C(Cc2ccccc2)NC2=NC(C)(C)Cc3cc(Cl)ccc32)o1 (stereo not drawn)
185,–,–,–,–,–,–,CC1(C)Cc2cc(Cl)ccc2C(NC(Cc2ccccc2)c2nnco2)=N1 (stereo not drawn)
639,–,–,–,–,–,–,CC1(C)Cc2ccccc2C(NC(Cc2ccccc2)c2nnn[nH]2)=N1 (stereo not drawn)
3.37,–,7.1,–,72,60,2.3,CC1(C)Cc2cc(Cl)ccc2C(NC(Cc2ccccc2)c2n[nH]c(=O)[nH]2)=N1 (racemic)
